Here are results for 18 compounds from patent US20070135383A1, “Phospholipase inhibitors, including multi-valent phospholipase inhibitors, and use thereof, including as lumen-localized phospholipase inhibitors” (priority 2005, published 2007).

Common to all, as to experiment: Fluorimetric PPyrPM assay for group 1B PLA2 inhibition (Example 12)
Type in all cases: biochemical

Experiment [1] has as its target T1, human group 1B PLA2 (hps PLA2) (Homo sapiens, UniProt P04054).
T1 construct: made in house; host or cells: E. coli
Conditions: human pancreas secreted PLA2; for IC50: read-out: ILYPSA IC50 hps PLA2; for inhibition at 15 µM: read-out: ILYPSA % inhibition at 15 μM hps PLA2. From the text:
(§1) In this example, a fluorimetric assay procedure was used to evaluate the indole and indole-related compounds of the invention as inhibitors of group 1B phospholipase A2 (PLA2) from human, mouse and porcine. A description of this assay is found in articles: Leslie, C C and Gelb, M H (2004) Methods in Molecular Biology “Assaying phospholipase A2 activity”, 284:229-242; Singer, A G, et al. (2002) Journal of Biological Chemistry “Interfacial kinetic and binding properties of the complete set of human and mouse groups I, II, V, X, and XII secreted phospholipases A2”, 277:48535-48549, which are incorporated herein as references.
(§2) In general, this assay used a phosphatidylmethanol substrate with a pyrene fluorophore on the terminal end of the sn-2 fatty acyl chain. Without being bound by theory, close proximity of the pyrenes from neighboring phospholipids in a phospholipid vesicle caused the spectral properties to change relative to that of monomeric pyrene. Bovine serum albumin was present in the aqueous phase and captured the pyrene fatty acid when it is liberated from the glycerol backbone owing to the PLA2-catalyzed reaction. However, a potent inhibitor can inhibit the liberation of pyrene fatty acid from the glycerol backbone. […] The effect of a given inhibitor and inhibitor concentration on human, mouse and porcine phospholipase was determined.
(§3) Recombinant human and mouse group 1B PLA2 were cloned and expressed in E. coli as insoluble inclusion bodies. The inclusion bodies were isolated and purified by sonicating cell pellet in lysis buffer (50 mM Tris-HCl pH 7.0, 250 mM NaCl, 0.5% Triton 100), centrifugation at 12,000×g, and washing three times in washing buffer (20 mM Tris-HCl pH 7.0, 250 mM NaCl, 0.5% Triton 100). Then the inclusion bodies were dissolved in dissolving buffer (50 mM Tris-HCl pH 7.0, 250 mM NaCl, 6 M Guanidine-HCl, 1 mM DTT) and dialyzed four times against 10 volumes of refolding buffer (20 mM Tris-HCl pH 7.0, 250 mM NaCl, 0.5M Guanidine-HCl, 5% (w/w) Glycerol, 2 mM reduced glutathione and 0.4 mM oxidized glutathione) at 4° C. The correctly refolded proteins were concentrated using Amicon Stirred cell under nitrogen pressure (<70 psi) and dialyzed against 10 volumes of 50 mM Tris-HCl pH 7.0, 250 mM NaCl and 5% (w/w) glycerol. Human and mouse group 1B PLA2 were further purified by High S ion exchange and gel filtration columns.
(§4) The following reagents and equipments were obtained from commercial vendors: • 1. Porcine group 1B phospholipase A2 • 2. 1-hexadecanoyl-2-(1-pyrenedecanoyl)-sn-glycero-3-phosphomethanol (PPyrPM) • 3. Bovine serum albumin (BSA, fatty acid free) • 4. 2-Amino-2-(hydroxymethyl)-1,3-propanediol, hydrochloride (Tris-HCl) • 5. Calcium chloride • 6. Potassium chloride • 7. Solvents: DMSO, toluene, isopropanol, ethanol • 8. Molecular Devices SPECTRAmax microplate spectrofluorometer • 9. Costar 96 well black wall/clear bottom plate
(§5) The following reagents were prepared: • 10. PPyrPM stock solution (1 mg/ml) in toluene:isopropanol (1:1) • 11. ILY104 inhibitor stock solution (10 mM) in DMSO • 12. 3% (w/v) bovine serum albumin (BSA) • 13. Stock buffer: 50 mM Tris-HCl, pH 8.0, 50 mM KCl and 1 mM CaCl2
(§6) The following procedure was performed to evaluate the inhibitory potency of the evaluated compounds. • 14. An assay buffer was prepared by adding 3 ml 3% BSA to 47 ml stock buffer. • 15. Solution A was prepared by adding serially diluted inhibitors to the assay buffer. Inhibitors were three-fold diluted in stock buffer in a series of 8 from 15 uM. • 16. Solution B was prepared by adding human, mouse or porcine PLA2 to the assay buffer. This solution was prepared immediately before use to minimize enzyme activity loss. • 17. Solution C was prepared by adding 30 ul PPyrPM stock solution to 90 ul ethanol, and then all 120 ul of PPyrPM solution was transferred drop-wise over approximately 1 min to the continuously stirring 8.82 ml assay buffer to form a final concentration of 4.2 uM PPyrPM vesicle solution. • 18. […]

The target in experiment [2] is T2, mouse group 1B PLA2 (mps PLA2) (Mus musculus, UniProt Q9Z0Y2).
T2 construct: made in house; host or cells: E. coli
To be noted: mouse pancreas secreted PLA2; for IC50: read-out: ILYPSA IC50 mps PLA2; for inhibition at 15 µM: read-out: ILYPSA % inhibition at 15 μM mps PLA2.
Source text: as §1, §2, §3, §4, §5, §6

The target in experiment [3] is T3, porcine group 1B PLA2 (pps PLA2) (Sus scrofa, UniProt P00592).
T3 construct: purchased
Conditions: porcine pancreas secreted PLA2; for IC50: read-out: ILYPSA IC50 pps PLA2.
Source text: as §1, §2, §4, §5
The following procedure was performed to evaluate the inhibitory potency of the evaluated compounds. • 14. An assay buffer was prepared by adding 3 ml 3% BSA to 47 ml stock buffer. • 15. Solution A was prepared by adding serially diluted inhibitors to the assay buffer. Inhibitors were three-fold diluted in stock buffer in a series of 8 from 15 uM. • 16. Solution B was prepared by adding human, mouse or porcine PLA2 to the assay buffer. This solution was prepared immediately before use to minimize enzyme activity loss. • 17. Solution C was prepared by adding 30 ul PPyrPM stock solution to 90 ul ethanol, and then all 120 ul of PPyrPM solution was transferred drop-wise over approximately 1 min to the continuously stirring 8.82 ml assay buffer to form a final concentration of 4.2 uM PPyrPM vesicle solution. • 18. The SPECTRAmax microplate spectrofluorometer was set at 37° C. • 19. 100 ul of solution A was added to each inhibition assay well of a costar 96 well black wall/clear bottom plate • 20. 100 ul of solution B was added to each inhibition assay well of a costar 96 well black wall/clear bottom plate. • 21. 100 ul of solution C was added to each inhibition assay well of a costar 96 well black wall/clear bottom plate. • 22. The plate was incubated inside the spectrofluorometer chamber for 3 min. • 23. The fluorescence was read using an excitation of 342 nm and an emission of 395 nm.
Evaluated compounds were tested in duplicate and their values were averaged to plot the inhibition curve and calculate the IC50. Compared to uninhibited controls, lower fluorescent signal at an emission of 395 nm in test reactions evidenced inhibition of PLA2. […] Compounds initially found to be active were repeated to confirm their inhibitory activity. […]

T2 sequence (Q9Z0Y2 23-146): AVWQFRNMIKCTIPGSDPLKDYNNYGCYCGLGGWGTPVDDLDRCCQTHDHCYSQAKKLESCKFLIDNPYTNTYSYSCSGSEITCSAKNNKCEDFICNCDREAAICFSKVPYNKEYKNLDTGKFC
T1 sequence (P04054 23-148): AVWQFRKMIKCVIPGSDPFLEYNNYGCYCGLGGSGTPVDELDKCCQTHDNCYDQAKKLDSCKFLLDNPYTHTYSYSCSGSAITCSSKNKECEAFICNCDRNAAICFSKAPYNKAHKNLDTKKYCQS
T3 sequence (P00592 23-146): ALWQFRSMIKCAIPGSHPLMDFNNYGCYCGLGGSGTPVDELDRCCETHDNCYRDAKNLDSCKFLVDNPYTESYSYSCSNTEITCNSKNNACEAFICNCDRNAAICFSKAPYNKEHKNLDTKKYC

Turning to `COc1cccc(Cn2c(C)c(C(=O)C(N)=O)c3c(OCC(=O)O)cccc32)c1` [ILY-V-8], the half-maximal inhibitory concentration (IC50) in experiment [1] came out at 3250 nM; in experiment [2], 970 nM; in experiment [3], 40 nM.
In the case of `Cc1c(C(=O)C(N)=O)c2c(OC(C(=O)O)c3ccccc3)cccc2n1Cc1ccccc1` (centres unmarked) [ILY-IV-32, (3-Aminooxalyl-1-benzyl-2-methyl-1H-indol-4-yloxy)-phenyl-acetic acid], the inhibition at 15 µM in experiment [1] is 41.7%; in experiment [2], 47.5%; in experiment [3] (read-out: ILYPSA % inhibition at 15 μM pps PLA2, 15 μM), 38.5%.
As for `Cc1c(C(=O)C(N)=O)c2c(OC(C(=O)O)C(C)C)cccc2n1CCCCCCCCCCCCn1c(C)c(C(=O)C(N)=O)c2c(OC(C(=O)O)C(C)C)cccc21` (centres unmarked) [ILY-V-44, 2-(3-Aminooxalyl-1-{12-[3-aminooxalyl-4-(1-carboxy-2-methyl-propoxy)-2-methyl-indol-1-yl]-dodecyl}-2-methyl-1H-indol-4-yloxy)-3-methyl-butyric acid], the values for the concentration for half-maximal inhibition (IC50) in experiment [1], in experiment [2] and in experiment [3] were 280 nM, 480 nM and 50 nM, respectively.
On to `Cc1c(C(=O)C(N)=O)c2c(OC(C(N)=O)C(C)C)cccc2n1Cc1ccccc1` (centres unmarked) [ILY-IV-45, 2-(3-(2-amino-2-oxoacetyl)-1-benzyl-2-methyl-1H-indol-4-yloxy)-3-methylbutanamide], for which the inhibition at 15 µM in experiment [1] came out at 74%; in experiment [2], 65.5%. In experiment [3], the half-maximal inhibitory concentration (IC50) is 1030 nM.
`Cc1c(C(=O)C(N)=O)c2c(OCC(=O)O)c(Br)ccc2n1Cc1ccccc1` [ILY-IV-3, (3-Aminooxalyl-1-benzyl-5-bromo-2-methyl-1H-indol-4-yloxy)-acetic acid]: the inhibition at 15 µM was 35.8% in experiment [1] and 39.8% in experiment [2]. The IC50 in experiment [3] amounted to 5870 nM.
For `Cc1c(C(=O)C(N)=O)c2c(OCC(=O)O)cccc2n1Cc1ccc(-c2ccccc2)cc1` [ILY-V-3], the IC50 in experiment [1] is 1260 nM; in experiment [2], 770 nM; in experiment [3] it was 210 nM.
For `Cc1c(C(=O)C(N)=O)c2c(OCC(=O)O)cccc2n1CCCCCCCCCCCCNCCCCCCCCCCCCn1c(C)c(C(=O)C(N)=O)c2c(OCC(=O)O)cccc21` [ILY-V-45, (3-Aminooxalyl-1-{12-[12-(3-aminooxalyl-4-carboxymethoxy-2-methyl-indol-1-yl)-dodecylamino]-dodecyl}-2-methyl-1H-indol-4-yloxy)-acetic acid] the same measures were 120 nM, 70 nM and 40 nM.
`Cc1c(C(=O)C(N)=O)c2c(OC(F)C(=O)O)cccc2n1Cc1ccccc1` (centres unmarked) [ILY-IV-24, (3-Aminooxalyl-1-benzyl-2-methyl-1H-indol-4-yloxy)-fluoro-acetic acid]: the inhibition at 15 µM in experiment [1] was 52.4%; in experiment [2], 63.7%. Besides, the IC50 in experiment [3] was 1420 nM.
On to `Cc1c(C(=O)C(N)=O)c2c(OC(C(=O)O)C(C)C)cccc2n1Cc1ccccc1` (centres unmarked) [ILY-IV-22, 2-(3-Aminooxalyl-1-benzyl-2-methyl-1H-indol-4-yloxy)-3-methyl-butyric acid], for which the IC50 in experiment [1] is 70 nM; in experiment [2], below 20 nM; in experiment [3], below 20 nM.
As for `Cc1c(C(=O)C(N)=O)c2c(OC(CCC(=O)O)C(=O)O)cccc2n1Cc1ccccc1` (centres unmarked) [ILY-IV-33, 2-(3-Aminooxalyl-1-benzyl-2-methyl-1H-indol-4-yloxy)-pentanedioic acid], the inhibition at 15 µM in experiment [1] was found to be 35.9%; in experiment [2], 50.3%. Further, the half-inhibitory concentration (IC50) in experiment [3] turned out to be 3760 nM.
`Cc1c(C(=O)C(N)=O)c2c(OCC(=O)O)ccc(NS(C)(=O)=O)c2n1Cc1ccccc1` [ILY-IV-37]: the half-inhibitory concentration (IC50) amounted to 3480 nM in experiment [1], 1020 nM in experiment [2] and 280 nM in experiment [3].
For `Cc1c(C(=O)C(N)=O)c2c(OCC(=O)O)ccc(N)c2n1Cc1ccccc1` [ILY-IV-35] the same measures were 8840 nM, 1740 nM and 320 nM.
For `CCc1c(C(=O)C(N)=O)c2c(OCC(=O)O)nccc2n1Cc1ccccc1` [ILY-II-9, 2-(3-(2-amino-2-oxoacetyl)-1-benzyl-2-ethyl-1H-pyrrolo[3,2-c]pyridin-4-yloxy)acetic acid] the same measures were 1460 nM, 350 nM and 30 nM.
Turning to `Cc1c(C(=O)C(N)=O)c2c(O)cccc2n1CCCCCCCCCCCCSCCCCCCCCCCCCn1c(C)c(C(=O)C(N)=O)c2c(O)cccc21` [ILY-V-35], the half-inhibitory concentration (IC50) in experiment [1] is 1520 nM; in experiment [2], 3650 nM; in experiment [3], 2090 nM.
With `Cc1c(C(=O)C(N)=O)c2c(OCC(=O)O)cccc2n1CCCCCCCCCCCCSSCCCCCCCCCCCCn1c(C)c(C(=O)C(N)=O)c2c(OCC(=O)O)cccc21` [ILY-V-28, 2,2′-(1,1′-(12,12′-disulfanediylbis(dodecane-12,1-diyl))bis(3-(2-amino-2-oxoacetyl)-2-methyl-1H-indole-4,1-diyl))bis(oxy)diacetic acid], the figures for the half-inhibitory concentration (IC50) in experiment [1], in experiment [2] and in experiment [3] were 600 nM, 1000 nM and 730 nM, respectively.
On to `C=CCn1c(C)c(C(=O)C(N)=O)c2c(OCC(=O)O)cccc21` [ILY-V-10], for which the inhibition at 15 µM in experiment [1] is 64%. Further, the IC50 in experiment [2] was 3210 nM; in experiment [3] it was 460 nM.
As for `Cc1c(C(=O)C(N)=O)c2c(OC(F)C(N)=O)cccc2n1Cc1ccccc1` (centres unmarked) [ILY-IV-28, 2-(3-Aminooxalyl-1-benzyl-2-methyl-1H-indol-4-yloxy)-2-fluoro-acetamide], the concentration for half-maximal inhibition (IC50) in experiment [1] is 2600 nM; in experiment [2], 1440 nM; in experiment [3], 160 nM.
`Cc1c(CC(N)=O)c2c(OCC(=O)O)cccc2n1Cc1ccccc1` [ILY-III-22, (1-Benzyl-3-carbamoylmethyl-2-methyl-1H-indol-4-yloxy)-acetic acid]: the results for the IC50 in experiment [1] and in experiment [2] were 1320 nM and 890 nM, respectively.

The IC50 is the midpoint of a concentration-inhibition curve. Broadly, the inhibition is the percentage by which the read-out fell short of the control.
